Tests used:
NR2B = assay: CNS phosphoprotein profile, NR2B phosphorylation at Tyr1472 in nucleus accumbens; type: in vivo, mice; conditions: 3 mg/kg; 30-60 minutes; mouse nucleus accumbens
Method: (§1) A comprehensive molecular phosphorylation study is also carried out to examine the central nervous system (CNS) profile of the compounds of Example 1 and Example 3. The extent of protein phosphorylation for selected key central nervous system proteins is measured in mice nucleus accumbens.
(§2) Mice were killed 30 minutes to 2 hours post-injection by focused microwave cranial irradiation, which preserves brain phosphoprotein as it exists at the time of death. Nucleus accumbens was then dissected from each mouse brain, sliced and frozen in liquid nitrogen. Samples were further prepared for phosphoprotein analysis via SDS-PAGE electrophoresis followed by phosphoprotein-specific immunoblotting, as described in Zhu H, et al., Brain Res. 2010 Jun 25; 1342:11-23. Phosphorylation at each site was quantified, normalized to total levels of the protein (non-phosphorylated), and expressed as percent of the level of phosphorylation in vehicle-treated control mice.

ERK2 = assay: CNS phosphoprotein profile, ERK2 phosphorylation at Thr183 and Tyr185 in nucleus accumbens; type: in vivo, mice; conditions: 3 mg/kg; mouse nucleus accumbens
Method: as §1, §2

GluR1 = assay: CNS phosphoprotein profile, GluR1 phosphorylation at Ser845 in nucleus accumbens; type: in vivo, mice; conditions: 3 mg/kg; mouse nucleus accumbens
Method: as §1, §2

5-HT2 receptor = system: 5-HT2 receptor; set-up: species or system mice; conditions: mouse, in vivo; for block of DOI head twitch (in words): po
[1] = system: TH (tyrosine hydroxylase); assay: CNS phosphoprotein profile, tyrosine hydroxylase phosphorylation at Ser40 in nucleus accumbens; type: in vivo, mice; conditions: mouse nucleus accumbens; for effect on tyrosine hydroxylase phosphorylation at Ser40 (in words): 3 mg/kg, 30 minutes or 60 minutes; for increase in TH phosphorylation: haloperidol 2 mg/kg, risperidone dose not given
Method: as §1, §2

Mice = assay: Mouse marble-burying study (OCD model); type: in vivo; conditions: for Marbles Buried: of 15 marbles, 30 min
From the text: The marble burying test is used to measure repetitive and anxiety-related behavior in rodents. It is based on the observation that rats and mice will bury either harmful or harmless objects in their bedding, and it has been used as an animal model to measure the effect of pharmacological interventions in treatment of repetitive behavior disorders, such as OCD.
MPEP is a selective mGluR5 glutamate receptor antagonist. […] Mice in groups (1) are orally administered the vehicle, and mice in group (4) are given an intraperitoneal injection of MPEP just prior to the start of the test.
The test is conducted in rectangular cages with 4-5 cm of wood chip bedding in a room with the window shades lowered and the door closed to minimize distractions. Fifteen clean marbles are evenly spaced on top of the bedding in three rows of five marbles. One mouse is placed in each cage. The mouse and cage is left undisturbed for 30 minutes. At the end of the test, the mouse is removed and the number of marbles buried to at least ⅔ of their depth is counted.

Mu opiate receptor = Mu opiate receptor (Homo sapiens, UniProt P35372); type: binding
Sequence of Mu opiate receptor (P35372 whole entry): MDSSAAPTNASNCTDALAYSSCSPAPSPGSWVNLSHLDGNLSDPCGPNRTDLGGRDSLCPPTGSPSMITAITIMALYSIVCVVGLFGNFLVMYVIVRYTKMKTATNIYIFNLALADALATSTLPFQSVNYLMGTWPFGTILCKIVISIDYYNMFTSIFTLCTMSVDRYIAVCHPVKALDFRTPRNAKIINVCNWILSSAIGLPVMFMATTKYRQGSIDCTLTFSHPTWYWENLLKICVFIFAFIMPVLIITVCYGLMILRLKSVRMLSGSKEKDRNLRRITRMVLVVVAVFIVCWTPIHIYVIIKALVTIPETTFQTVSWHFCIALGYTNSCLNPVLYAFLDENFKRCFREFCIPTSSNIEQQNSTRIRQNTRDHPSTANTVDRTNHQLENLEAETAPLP

O=C1CN2c3c(cccc3[C@@H]3CN(CCCC(=O)c4ccc(F)cc4)CC[C@@H]32)N1 [Example 1, 4-((6bR,10aS)-2-Oxo-2,3,6b,9,10,10a-Hexahydro-1H,7H-Pyrido[3′,4′:4,5]Pyrrolo[1,2,3-De]Quinoxalin-8-Yl)-1-(4-Fluoro-Phenyl)-Butan-1-One]
effect on NR2B phosphorylation at Tyr1472 (in words) (NR2B): neither the compound of Example 1 nor of Example 3 has a significant effect
effect on ERK2 phosphorylation at Thr183 and Tyr185 (in words) (ERK2): slight decrease
effect on GluR1 phosphorylation at Ser845 (in words) (GluR1): slight increase
EC50 for reducing DOI-induced head twitches (5-HT2 receptor): 0.23 mg/kg, p.o.
block of DOI head twitch (in words) (5-HT2 receptor): potently block DOI head twitch
effect on tyrosine hydroxylase phosphorylation at Ser40 (in words) [1]: neither the compound of Example 1 nor of Example 3 has a significant effect

O=C1CN2c3c(cccc3[C@@H]3CN(CCCOc4ccc(F)cc4)CC[C@@H]32)N1 [Example 3, (6bR,10aS)-8-(3-(4-Fluorophenoxy)Propyl)-6b,7,8,9,10,10a-Hexahydro-1H-Pyrido[3′,4′:4,5]Pyrrolo[1,2,3-De]Quinoxalin-2(3H)-One]
effect on NR2B phosphorylation at Tyr1472 (in words) (NR2B): neither the compound of Example 1 nor of Example 3 has a significant effect
effect on ERK2 phosphorylation at Thr183 and Tyr185 (in words) (ERK2): slight decrease
effect on GluR1 phosphorylation at Ser845 (in words) (GluR1): slight increase
Marbles Buried (Mice; 0.3 mg/kg orally 30 minutes prior to the test): 9.3
decrease in marble burying compared to the control (in words) (Mice; 0.3 mg/kg, p <0.01): statistically significant decrease
EC50 for reducing DOI-induced head twitches (5-HT2 receptor): 0.44 mg/kg, p.o.
block of DOI head twitch (in words) (5-HT2 receptor): potently block DOI head twitch
effect on tyrosine hydroxylase phosphorylation at Ser40 (in words) [1]: neither the compound of Example 1 nor of Example 3 has a significant effect

CN1CCN2c3c(cccc31)[C@@H]1CN(CCCC(=O)c3ccc(F)cc3)CC[C@@H]12 [Formula A, reference compound]
activity at the Mu opiate receptor (in words) (Mu opiate receptor): not active

CN1CCN2c3c(cccc31)[C@@H]1CN(CCCC(O)c3ccc(F)cc3)CC[C@@H]12 (stereo partly shown) [Formula B, reference compound]
EC50 for reducing DOI-induced head twitches (5-HT2 receptor): 0.31 mg/kg, p.o.

Cc1cccc(C#Cc2ccccc2)n1 [MPEP, 2-methyl-6-(phenylethynyl)pyridine, reference compound]
Marbles Buried (Mice; 20 mg/kg intraperitoneal just prior to the test): 0.2

O=C(CCCN1CCC(O)(c2ccc(Cl)cc2)CC1)c1ccc(F)cc1 [haloperidol, reference compound]
increase in TH phosphorylation [1]: greater than 400%

Cc1nc2n(c(=O)c1CCN1CCC(c3noc4cc(F)ccc34)CC1)CCCC2 [risperidone, reference compound]
increase in TH phosphorylation [1]: greater than 500%

— patent US12440489B2 (priority 2016, dated 2025)
